# Laboratory results published in patent US20210276985A1, “NOVEL COMPOUNDS” (priority 2018, published 2021).
# Test system: human Kv3.1 channels
# Test: Kv3.1 channel modulation, IonWorks Quattro planar array electrophysiology in HEK-hKv3.1 cells
# Type: cell-based
# Details: hKv3.1 HEK cells, -15 mV step
# Excerpt: The ability of the compounds of the invention to modulate the voltage-gated potassium channel subtypes Kv3.3/Kv3.2/Kv3.1 may be determined using the following assay. Analogous methods may be used to investigate the ability of the compounds of the invention to modulate other channel subtypes.
# To assess compound effects on human Kv3.1 channels (hKv3.1): Human embryonic kidney (HEK)-hKv3.1 cell line is generated by transfecting HEK-293 cells with an expression vector with human Kv3.1 (NM_004976.4). Cells are cultured with MEM supplemented with 10% Heat-Inactivated FBS, 2 mM L-glutamine, 1% Penicillin-Streptomycin, and 0.6 mg/ml of Geneticin (G418). HEK-hKv3.1b cells were amplified in T175 cm2 flask at 37° C. with 5% CO2, using MEM amplification medium, containing the G418 selection antibiotic (0.6 mg/ml). Cells were detached every 3-4 days, using DPBS to wash twice the flask, then TrypLE to dislodge the cells, and re-plated at a density of 2-4×10^6 cells/flask.
# The day of the experiment, cells are removed from the incubator and the culture medium removed. […]
# Experiments are conducted at r.t. using IonWorks Quattro™ planar array electrophysiology technology (Molecular Devices Corp.) with PatchPlate™ PPC. […] Planar electrode hole resistances (Rp) are determined by applying a 10 mV voltage step across each well. […]
compound,measurement,setting,value
"CC[C@@H]1NC(=O)N(c2cnc(Oc3ccc(C)c4c3C3(CC3)CO4)cn2)C1=O [Example 15, (5S)-5-ethyl-3-[5-(7-methylspiro[2H-benzofuran-3,1′-cyclopropane]-4-yl)oxypyrazin-2-yl]imidazolidine-2,4-dione]",Kv3.1 pEC50,EC50 = 50% of maximum increase by reference compound,5.10
same,Kv3.1 max R %,normalised to maximum effect of reference compound (50 microM),136%
